The text below walks through data of patent publication US11905254B1, “1-(3-chlorobenzylideneamino)-5,5-diphenylimidazolidine-2,4-dione as an antimicrobial compound” (KING FAISAL UNIVERSITY, priority 2023, dated 2024).

The structures appear in SMILES notation.

Format in all cases: cell-based
The test system of experiment [1] is different microbes. Put plainly: antimicrobial testing, overall statement on Tables 1 and 2. The settings on record: summary of Tables 1 and 2, bacteria and fungi. As for the experimental part:
(§1) The agar plate disc-diffusion method was applied. Sterilized filter papers (6 mm in diameter) were wetted with 10 μL of a solution of 1-(3-chlorobenzylideneamino)-5,5-diphenylimidazolidine-2,4-dione (4) to be tested, containing 10 mg/mL in DMSO, and the discs were allowed to air dry. The discs were then placed onto the surface of agar plates (nutrient agar for bacteria and Sabouraud's dextrose agar for fungi) seeded with the test organism. Each plate contained 15 mL of the agar medium, previously seeded with 0.2 mL of the broth culture of each organism pregrown for 18 hours. The plates were incubated at 37° C. for 48 hours, and 72 hours for fungi. The inhibition zones was measured in millimeter. Discs impregnated with DMSO were used as a control, and its inhibition zone was subtracted from the tested compound actual inhibition zone.
The antibacterial activity was screened against gram positive bacteria namely Bacillus cereus and Staphylococcus aureus and gram-negative bacterial strains namely Pseudomonas aeruginosa and Escherichia coli, while the antifungal activity was screened against Aspergillus flavus and Chrysosporium keratinophilum.

Experiment [2] concerns Chrysosporium keratinophilum. As to the kind of experiment: agar plate disc-diffusion, antifungal activity by inhibition zone. The conditions noted are these: Sabouraud's dextrose agar, 37° C., 72 hours, DMSO control subtracted. On the procedure: as §1, with “Sterilized filter papers (6 mm in diameter) were wetted with 10 μL of a solution of 1-(3-chlorobenzylideneamino)-5,5-diphenylimidazolidine-2,4-dione (4) to be tested, containing 10 mg/mL in DMSO, and the discs were allowed to air dry.” left out
(§2) The results of the antimicrobial testing can be observed in Tables 1 and 2, below, with ciprofloxacin serving as a reference.
On the technique in general: In agar diffusion tests the substance spreads into inoculated agar from a disc or well.

The test system of experiment [3] is Aspergillus flavus. The experiment is described as above. The conditions noted are these: Sabouraud's dextrose agar, 37° C., 72 hours, DMSO control subtracted. As for the experimental part:
as §1, with “Sterilized filter papers (6 mm in diameter) were wetted with 10 μL of a solution of 1-(3-chlorobenzylideneamino)-5,5-diphenylimidazolidine-2,4-dione (4) to be tested, containing 10 mg/mL in DMSO, and the discs were allowed to air dry.” left out
as §2

Experiment [4] deals with Escherichia coli. Put plainly: agar plate disc-diffusion, antibacterial activity by inhibition zone. The conditions noted are these: nutrient agar, 37° C., 48 hours, DMSO control subtracted. On the procedure:
as §1, with “Sterilized filter papers (6 mm in diameter) were wetted with 10 μL of a solution of 1-(3-chlorobenzylideneamino)-5,5-diphenylimidazolidine-2,4-dione (4) to be tested, containing 10 mg/mL in DMSO, and the discs were allowed to air dry.” left out
as §2

Experiment [5] has as its system Bacillus Cereus. Described as above. The settings on record: nutrient agar, 37° C., 48 hours, DMSO control subtracted. As for the experimental part:
as §1, with “Sterilized filter papers (6 mm in diameter) were wetted with 10 μL of a solution of 1-(3-chlorobenzylideneamino)-5,5-diphenylimidazolidine-2,4-dione (4) to be tested, containing 10 mg/mL in DMSO, and the discs were allowed to air dry.” left out
as §2

Experiment [6] concerns Pseudomonas aeruginosa. Described as above. The conditions noted are these: nutrient agar, 37° C., 48 hours, DMSO control subtracted. As for the experimental part:
as §1, with “Sterilized filter papers (6 mm in diameter) were wetted with 10 μL of a solution of 1-(3-chlorobenzylideneamino)-5,5-diphenylimidazolidine-2,4-dione (4) to be tested, containing 10 mg/mL in DMSO, and the discs were allowed to air dry.” left out
as §2

Experiment [7] concerns Staphylococcus aureus. The description is as above. The conditions noted are these: nutrient agar, 37° C., 48 hours, DMSO control subtracted. As for the experimental part: as §1, with “Sterilized filter papers (6 mm in diameter) were wetted with 10 μL of a solution of 1-(3-chlorobenzylideneamino)-5,5-diphenylimidazolidine-2,4-dione (4) to be tested, containing 10 mg/mL in DMSO, and the discs were allowed to air dry.” left out
as §2

[8] abbreviates: A = concentration of comp. = 10,000 μL.
[9] abbreviates: B = concentration of comp. = 30.000 μL.
Where [10] appears, read: C = concentration of comp. = 50,000 μL.

As to `O=C1NC(=O)C(c2ccccc2)(c2ccccc2)N1/N=C/c1cccc(Cl)c1` [Compound 4, 1-(3-chlorobenzylideneamino)-5,5-diphenylimidazolidine-2,4-dione], in experiment [1], the “antimicrobial activities (in words)” value is listed as “high antimicrobial activities”. Further, the inhibition zone is 24 millimeter in experiment [2] (setting [8]); 25 millimeter in experiment [2] (setting [9]); 41 millimeter in experiment [2] (setting [10]); 20 millimeter in experiment [3] (setting [8]); 24 millimeter in experiment [3] (setting [9]); 35 millimeter in experiment [3] (setting [10]). The inhibition zone in experiment [4] (setting [8]) was found to be 24 millimeter; in experiment [4] (setting [9]), 30 millimeter; in experiment [4] (setting [10]), 46 millimeter; in experiment [5] (setting [8]), 26 millimeter; in experiment [5] (setting [9]), 28 millimeter; in experiment [5] (setting [10]), 39 millimeter. Also, the inhibition zone in experiment [6] (setting [8]) was 23 millimeter; in experiment [6] (setting [9]) it was 24 millimeter; in experiment [6] (setting [10]) it was 42 millimeter; in experiment [7] (setting [8]) it was 24 millimeter; in experiment [7] (setting [9]) it was 30 millimeter; in experiment [7] (setting [10]), 40 millimeter.

In the case of `O=C(O)c1cn(C2CC2)c2cc(N3CCNCC3)c(F)cc2c1=O` [Cip., ciprofloxacin, reference compound], the inhibition zone turned out to be 29 millimeter in experiment [2] (setting [8]); 30 millimeter in experiment [2] (setting [9]); 53 millimeter in experiment [2] (setting [10]); 29 millimeter in experiment [3] (setting [8]); 30 millimeter in experiment [3] (setting [9]); 42 millimeter in experiment [3] (setting [10]). Further, the inhibition zone worked out at 30 millimeter in experiment [4] (setting [8]); 39 millimeter in experiment [4] (setting [9]); 60 millimeter in experiment [4] (setting [10]); 29 millimeter in experiment [5] (setting [8]); 30 millimeter in experiment [5] (setting [9]); 42 millimeter in experiment [5] (setting [10]). Moreover, the inhibition zone in experiment [6] (setting [8]) stood at 29 millimeter; in experiment [6] (setting [9]) it was 30 millimeter; in experiment [6] (setting [10]), 53 millimeter; in experiment [7] (setting [8]), 43 millimeter; in experiment [7] (setting [9]), 44 millimeter; in experiment [7] (setting [10]), 53 millimeter.
